Measured values taken from the supplement of paper PMC10307832.

How the values were obtained:
Assay in all cases: relative viability (nuclei count vs DMSO), 5 days (fraction); higher = more cells survive
[1] = compound: CC1=C(C(=NN1)C)CC2=C(C3=C(S2)N(C(=O)N(C3=O)C)CC(C)C)C(=O)N4C[C@@H](CO4)O + COc1cccc2cc(-c3nc([C@H]4CC[C@H](C(=O)O)CC4)n4ncnc(N)c34)[nH]c12 [OSI-027] (partner 0.5 µM)
How it was run: (§1)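 After 5 days of treatment, lung cancer cells in 1536-well plates were fixed and stained in a single step (final 0.05% Triton X-100, 1% formaldehyde, 1 ug/ml Hoechst) and their nuclei counted on 4× images. Treatment had been applied by pin tool the day after seeding as one drug alone or as a fixed anchor-drug dose with five library-drug doses (not always all listed) in √10 steps. Relative viability is the nuclei count of treated wells divided by that of vehicle wells, and values are medians of duplicate plates.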

[2] = compound: Cc1ccccc1C(C(=O)NC1CCCCC1)N(C(=O)Cn1ccnc1C)c1cccc(F)c1 [IDH-C35] + CCNC(=O)c1noc(-c2cc(C(C)C)c(O)cc2O)c1-c1ccc(CN2CCOCC2)cc1 [Luminespib] (partner 0.01 µM)
How it was run: as §1

[3] = compound: Cc1ccccc1C(C(=O)NC1CCCCC1)N(C(=O)Cn1ccnc1C)c1cccc(F)c1 [IDH-C35] + NC(=O)Nc1cc(-c2cccc(F)c2)sc1C(=O)N[C@H]1CCCNC1 [AZD7762] (partner 0.2 µM)
How it was run: as §1

[4] = compound: Cc1ccccc1C(C(=O)NC1CCCCC1)N(C(=O)Cn1ccnc1C)c1cccc(F)c1 [IDH-C35] + CS(=O)(=O)CCNCc1ccc(-c2ccc3ncnc(Nc4ccc(OCc5cccc(F)c5)c(Cl)c4)c3c2)o1 [Lapatinib] (partner 2 µM)
How it was run: as §1

Row | Cell Line | relative viability ([1]; first compound 0.0025 µM) | relative viability ([1]; first compound 0.007906 µM) | relative viability ([1]; first compound 0.025 µM) | relative viability ([1]; first compound 0.07906 µM) | relative viability ([1]; first compound 0.25 µM) | relative viability ([2]; first compound 0.08 µM) | relative viability ([2]; first compound 0.253 µM) | relative viability ([2]; first compound 0.8 µM) | relative viability ([2]; first compound 2.53 µM) | relative viability ([2]; first compound 8 µM) | relative viability ([3]; first compound 0.08 µM) | relative viability ([3]; first compound 0.253 µM) | relative viability ([3]; first compound 0.8 µM) | relative viability ([3]; first compound 2.53 µM) | relative viability ([3]; first compound 8 µM) | relative viability ([4]; first compound 0.08 µM) | relative viability ([4]; first compound 0.253 µM) | relative viability ([4]; first compound 0.8 µM) | relative viability ([4]; first compound 2.53 µM) | relative viability ([4]; first compound 8 µM)
1 | 201T | 0.843 | 0.79 | 0.72 | 0.642 | 0.71 | 1.05 | 1.07 | 1.02 | 1.04 | 1.01 | 0.62 | 0.638 | 0.615 | 0.514 | 0.603 | 1.05 | 1.04 | 1.02 | 0.973 | 1.01
2 | A549 |  |  |  |  |  |  |  |  |  |  |  |  |  |  |  | 0.956 | 1 | 0.988 | 0.947 | 1.03
3 | A-427 | 0.444 | 0.569 | 0.425 | 0.549 | 0.477 | 0.914 | 0.892 | 0.785 | 0.87 | 0.852 | 0.709 | 0.725 | 0.687 | 0.679 | 0.707 | 1.03 | 0.978 | 0.942 | 1.02 | 1.03
4 | ABC-1 | 0.55 | 0.459 | 0.583 | 0.517 | 0.52 | 0.598 |  | 0.688 | 0.805 | 0.818 | 0.779 | 0.874 | 0.739 | 0.744 | 1.01 | 1.3 | 1 | 1.03 | 1.16 | 1.06
5 | BEN | 0.31 | 0.293 | 0.357 | 0.317 | 0.292 | 0.373 | 0.391 | 0.311 | 0.425 | 0.333 | 0.572 | 0.772 | 0.679 | 0.586 | 0.683 | 0.796 | 0.805 | 0.724 | 0.718 | 0.865
6 | CAL-12T | 0.746 | 0.928 | 0.538 | 0.661 | 0.806 | 0.498 | 0.314 | 0.36 | 0.188 | 0.363 | 0.545 | 0.569 | 0.686 | 0.589 | 0.577 | 0.655 | 0.578 | 0.728 | 0.749 | 0.7
7 | COR-L23 | 0.876 | 0.761 | 0.68 | 0.678 | 0.793 | 0.789 | 0.656 | 0.664 | 0.641 | 0.679 |  |  |  |  |  | 1.05 | 1.09 | 0.932 | 1 | 0.938
8 | COR-L 105 | 0.741 | 0.694 | 0.663 | 0.838 | 0.679 | 0.722 | 0.951 | 0.715 | 0.819 | 0.742 |  |  |  |  |  | 0.33 | 0.359 | 0.337 | 0.34 | 0.369
9 | Calu-6 |  |  |  |  |  |  |  |  |  |  |  |  |  |  |  | 1.04 | 1.04 | 1.03 | 1.06 | 1.01
10 | ChaGo-K-1 | 0.613 | 0.592 | 0.602 | 0.555 | 0.563 | 0.733 | 0.625 | 0.623 | 0.697 | 0.67 | 0.97 | 0.928 | 0.899 | 0.819 | 0.818 |  |  |  |  | 
11 | EBC-1 |  |  |  |  |  |  |  |  |  |  |  |  |  |  |  | 0.24 | 0.228 | 0.24 | 0.232 | 0.236
12 | EKVX | 0.677 | 0.712 | 0.666 | 0.716 | 0.592 | 0.93 | 0.908 | 0.822 | 0.842 | 0.845 | 0.75 | 0.819 | 0.725 | 0.803 | 0.756 | 0.201 | 0.205 | 0.208 | 0.183 | 0.205
13 | EMC-BAC-2 | 0.416 | 0.403 | 0.394 | 0.43 | 0.416 | 1.18 | 1.18 | 1.18 | 1.14 | 1.14 | 1.1 | 1.12 | 1.16 | 1.18 | 1.16 | 0.916 | 0.86 | 0.868 | 0.895 | 0.955
14 | EPLC-272H | 0.275 | 0.225 | 0.312 | 0.314 | 0.308 | 0.262 | 0.265 | 0.605 | 0.351 | 0.428 | 0.387 | 0.266 | 0.215 |  | 0.305 | 1.21 | 1.04 | 0.912 |  | 0.802
15 | HCC-78 | 0.388 | 0.38 | 0.343 | 0.357 | 0.374 |  |  |  |  |  | 0.584 | 0.66 | 0.615 | 0.738 | 0.732 | 1.02 | 0.732 | 0.841 | 0.606 | 0.355
16 | HCC-366 | 0.937 | 1.16 | 1.18 | 1.09 | 0.933 |  |  |  |  |  | 0.306 | 0.306 | 0.233 | 0.227 | 0.281 | 1.12 | 1.03 | 1.04 | 1.08 | 1.12
17 | IA-LM |  |  |  |  |  |  |  |  |  |  |  |  |  |  |  | 0.721 | 1.03 | 0.721 | 0.809 | 0.535
